17 compounds from patent US5571825A, “Method of selectively inhibiting prostaglandin G/H synthase-2” (Warner-Lambert Company, priority 1995, dated 1996) can be followed below.

SMILES strings stand for the structures. Where “and” joins values, the source holds several entries; their conditions need not be identical. Equal entries are not always repeated. Where two headings read alike, the source gives them in different places. Some results are limits rather than exact numbers.

Assay [1] concerns the target T1, prostaglandin G/H synthase-2 (Ovis aries, UniProt P79208).
T1 construct: purified from sheep placenta; from tissue; host or cells: sheep placenta
Briefly: Inhibition of prostaglandin G/H synthase-2 (conversion of [14C]arachidonic acid to products). Type of assay: biochemical. As to conditions: enzyme purified from sheep placenta, 15 min preincubation, pH 7.4, room temperature. Here is the method:
(§1) The compounds of the present invention were evaluated as selective inhibitors of prostaglandin G/H synthase-2 by determining the effect of the compounds on the conversion of [^14 C]arachidonic acid to products by prostaglandin G/H synthase-2 purified from sheep placenta. This enzyme shares immunoreactivity and sequence homology with human prostaglandin G/H synthase-2. The effects of the compounds on prostaglandin G/H synthase-1 purified from ram seminal vesicles is used for the evaluation of inhibitory selectivity.
(§2) Each compound was preincubated for 15 minutes at room temperature in 50 mM sodium phosphate buffer at pH 7.4 containing 3.33 mM reduced glutathione, 2.67 mM epinephrine and 6.6% dimethylsulfoxide with sufficient enzyme to cause approximately 30% conversion of substrate to products after 15 minutes incubation in the absence of inhibitory compounds. Reactions with 24 μM arachidonic acid are initiated by the addition of a one third volume of 50 mM sodium phosphate buffer, pH 7.4, containing 3.33 mM reduced glutathione, 2.67 mM epinephrineβ and [^14 C] arachidonic acid.
(§3) Reactions were terminated after 15 minutes incubation at room temperature by the addition of 1.875 volumes of methanol:acetic acid (100:0.1) containing 0.5 mg/ml triphenylphosphine. The reaction products were separated from the unconverted substrate by high performance liquid chromatography and quantified by on-line radiometric detection. Compound effects were computed as percent inhibition of blank-adjusted mean product formation in uninhibited incubations.

Assay [2] addresses T2, prostaglandin G/H synthase-1 (Ovis aries, UniProt P05979).
T2 construct: purified from ram seminal vesicles; from tissue; host or cells: ram seminal vesicles
T2 sequence (P05979 25-600): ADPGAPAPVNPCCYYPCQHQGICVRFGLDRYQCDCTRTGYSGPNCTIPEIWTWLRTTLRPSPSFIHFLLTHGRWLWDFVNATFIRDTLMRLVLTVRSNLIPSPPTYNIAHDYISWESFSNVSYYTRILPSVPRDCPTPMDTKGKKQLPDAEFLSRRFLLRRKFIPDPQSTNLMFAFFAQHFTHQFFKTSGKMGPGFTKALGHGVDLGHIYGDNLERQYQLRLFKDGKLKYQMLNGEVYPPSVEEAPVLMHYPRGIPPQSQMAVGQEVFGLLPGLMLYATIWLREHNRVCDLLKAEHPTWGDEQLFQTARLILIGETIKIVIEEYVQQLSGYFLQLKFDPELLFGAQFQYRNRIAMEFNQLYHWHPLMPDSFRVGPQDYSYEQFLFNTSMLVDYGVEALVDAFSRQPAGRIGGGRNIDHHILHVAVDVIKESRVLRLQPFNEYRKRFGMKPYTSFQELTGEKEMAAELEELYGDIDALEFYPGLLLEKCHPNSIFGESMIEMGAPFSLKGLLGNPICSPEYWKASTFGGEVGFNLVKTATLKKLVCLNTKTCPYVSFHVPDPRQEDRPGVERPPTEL
Briefly: Inhibition of prostaglandin G/H synthase-1 (conversion of [14C]arachidonic acid to products). Type of assay: biochemical. To be noted: enzyme purified from ram seminal vesicles, 15 min preincubation, pH 7.4, room temperature. Here is the method: as §1, §2, §3

The mark [3] stands for this setting: pH 7.4, read-out: % Inhibition of PGHS-2 at 10 μM, 10 μM.
Setting [4] is: pH 7.4, read-out: % Inhibition of PGHS-2 at 100 μM, 100 μM.
Setting [5] is: pH 7.4, read-out: % Inhibition of PGHS-1 at 10 μM, 10 μM.
The mark [6] stands for this setting: pH 7.4, read-out: % Inhibition of PGHS-1 at 100 μM, 100 μM.
[7] abbreviates: pH 7.4, 10 μM, read-out: % Inhibition of PGHS-2 at 10 μM.
The mark [8] stands for this setting: pH 7.4, 100 μM, read-out: % Inhibition of PGHS-2 at 100 μM.
Setting [9] is: pH 7.4, 10 μM, read-out: % Inhibition of PGHS-1 at 10 μM.
The mark [10] stands for this setting: pH 7.4, 100 μM, read-out: % Inhibition of PGHS-1 at 100 μM.

T1 sequence (P79208 17-603): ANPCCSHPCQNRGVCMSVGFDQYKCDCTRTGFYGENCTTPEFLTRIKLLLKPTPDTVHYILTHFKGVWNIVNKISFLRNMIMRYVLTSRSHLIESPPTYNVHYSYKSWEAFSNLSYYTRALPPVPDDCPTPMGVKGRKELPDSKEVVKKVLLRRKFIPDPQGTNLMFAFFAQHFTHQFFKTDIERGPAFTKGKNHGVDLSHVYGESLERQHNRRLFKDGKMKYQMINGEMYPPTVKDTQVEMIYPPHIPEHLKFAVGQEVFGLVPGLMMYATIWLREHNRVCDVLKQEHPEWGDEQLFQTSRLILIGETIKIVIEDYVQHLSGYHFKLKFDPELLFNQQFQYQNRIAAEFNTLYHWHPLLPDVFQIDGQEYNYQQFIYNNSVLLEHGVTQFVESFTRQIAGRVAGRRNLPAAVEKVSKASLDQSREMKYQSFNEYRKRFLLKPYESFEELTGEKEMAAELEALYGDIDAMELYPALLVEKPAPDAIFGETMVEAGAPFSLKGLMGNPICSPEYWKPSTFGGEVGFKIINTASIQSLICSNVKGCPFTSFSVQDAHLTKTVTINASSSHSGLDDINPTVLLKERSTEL

In general, inhibition refers to the percentage by which the read-out fell short of the control. Take `COC(=O)CSC(c1ccccc1Cl)c1ccccc1Cl` [Example 7, Methyl [[bis-(2-chlorophenyl)methyl]thio]acetate]: the inhibition at 10 µM in assay [1] (setting [3]) and in assay [2] (setting [5]) was below 10% throughout. Besides, the inhibition at 100 µM in assay [1] (setting [4]) is 37%; in assay [2] (setting [6]), below 10%.
On to `COC(=O)CSC(c1ccc(Cl)cc1)c1ccc(Cl)cc1` [Example 3, Methyl [[bis-(4-chlorophenyl)methyl]thio]acetate], for which the “% Inhibition of PGHS-2 at 100 μM” value in assay [1] was 46%. Moreover, the inhibition at 100 µM in assay [1] (setting [4]) was 45%.
Turning to `COC(=O)CSC(c1ccc(C)cc1)c1ccc(C)cc1` [Example 6, Methyl [[bis-(4-methylphenyl)methyl]thio]acetate], the inhibition at 10 µM in assay [1] (setting [3]) was 11%; in assay [2] (setting [5]) it was below 10%. Moreover, the inhibition at 100 µM in assay [1] (setting [4]) was 52%; in assay [2] (setting [6]), below 10%.
Turning to `COC(=O)CSC(c1ccc(F)cc1)c1ccc(F)cc1` [Example 5, Methyl [[bis-(4-fluorophenyl)methyl]thio]acetate], the “% Inhibition of PGHS-2 at 100 μM” value in assay [1] came out at 40%. Further, the inhibition at 100 µM in assay [1] (setting [4]) was 52%; in assay [2] (setting [6]), below 10%. In addition, in assay [2] (setting [5]), the inhibition at 10 µM was below 10%.
Consider `COC(=O)CSC1c2ccccc2-c2ccccc21` [Example 10, Methyl (9-fluorenylthio)acetate], for which the inhibition at 10 µM is 30% in assay [1] (setting [7]) and below 10% in assay [2] (setting [9]). Further, the inhibition at 100 µM in assay [1] (setting [8]) is 77%; in assay [2] (setting [10]), 18%.
Regarding `COC(=O)CSC(c1ccc(OC)cc1)c1ccc(OC)cc1` [Example 2, Methyl [[bis-(4-methoxyphenyl)methyl]thio]acetate], in assay [1], the “% Inhibition of PGHS-2 at 10 μM” value was 34%. For the same compound, the “% Inhibition of PGHS-2 at 100 μM” value in assay [1] was 74%. For the same compound, the inhibition at 10 µM in assay [1] (setting [3]) was 23%; in assay [2] (setting [5]), below 10%. The inhibition at 100 µM was 79% in assay [1] (setting [4]) and below 10% in assay [2] (setting [6]). Moreover, in assay [2], the “% Inhibition of PGHS-1 at 100 μM” value was determined as 13%.
As to `COC(=O)CSC(c1ccccc1)(c1ccccc1)c1ccccc1` [Example 11, Methyl [(triphenylmethyl)thio]acetate], the figures for the inhibition at 10 µM in assay [1] (setting [7]) and in assay [2] (setting [9]) were 29% and below 10%, respectively. The inhibition at 100 µM in assay [1] (setting [8]) was 62%; in assay [2] (setting [10]), 10%.
On to `COC(=O)CSC1c2ccccc2CCc2ccccc21` [Example 17, Methyl (10, 11-dihydro-5H-dibenzo[a,d]cyclohepten-5-yl-thio)acetate], for which the inhibition at 10 µM in assay [1] (setting [7]) was 8%; in assay [2] (setting [9]), below 10%. Besides, the values for the inhibition at 100 µM in assay [1] (setting [8]) and in assay [2] (setting [10]) were 17% and below 10%, respectively.
As for `COC(=O)CSC(c1cccs1)c1cccs1` [Example 9, Methyl [[bis-(2-thienyl)methyl]thio]acetate], the inhibition at 10 µM in assay [1] (setting [7]) and in assay [2] (setting [9]) was below 10% throughout. Further, the inhibition at 100 µM in assay [1] (setting [8]) was 33%; in assay [2] (setting [10]) it was below 10%.
`COC(=O)CSC(c1ccc(OC)cc1)(c1ccc(OC)cc1)c1ccc(OC)cc1` [Example 12, Methyl [[(tris-4-methoxyphenyl)methyl]thio]acetate]: in assay [1], the “% Inhibition of PGHS-2 at 10 μM” value was determined as 83% and the “% Inhibition of PGHS-2 at 100 μM” value was 86%. For the same compound, in assay [1] (setting [7]), the inhibition at 10 µM turned out to be 79%. Further, the inhibition at 100 µM in assay [1] (setting [8]) came to 80%. The “% Inhibition of PGHS-1 at 100 μM” value in assay [2] was 17%. In addition, the inhibition at 100 µM in assay [2] (setting [10]) was 32%.
With `COC(=O)CSC(c1ccccc1OC)c1ccccc1OC` [Example 8, Methyl [[bis-(2-methoxyphenyl)methyl]thio]acetate], the inhibition at 10 µM in assay [1] (setting [3]) came out at 14%. Further, in assay [1] (setting [4]), the inhibition at 100 µM amounted to 77%.
Turning to `COC(=O)CSC(c1ccccc1)(c1ccc(OC)cc1)c1ccc(OC)cc1` [Example 13, Methyl [[(bis-4-methoxyphenyl)phenylmethyl]thio]acetate], the inhibition at 10 µM in assay [1] (setting [7]) is 41%; in assay [2] (setting [9]) it was below 10%. Moreover, the inhibition at 100 µM in assay [1] (setting [8]) is 49%; in assay [2] (setting [10]) it was below 10%.
`COC(=O)CSC1c2ccccc2Oc2ccccc21` [Example 16, Methyl (xanthen-9-yl-thio)acetate]: in assay [1], the “% Inhibition of PGHS-2 at 10 μM” value stood at 50% and the “% Inhibition of PGHS-2 at 100 μM” value is given as 85%. In addition, in assay [1] (setting [7]), the inhibition at 10 µM came to 41%. The inhibition at 100 µM in assay [1] (setting [8]) worked out at 78%. The inhibition at 10 µM in assay [2] (setting [9]) is below 10%.
In the case of `COC(=O)CSC1(c2ccccc2)c2ccccc2-c2ccccc21` [Example 14, Methyl (9-phenylfluoren-9-yl-thio)acetate], the values for the inhibition at 10 µM in assay [1] (setting [7]) and in assay [2] (setting [9]) were 14% and below 10%, respectively. Besides, the inhibition at 100 µM is 50% in assay [1] (setting [8]) and below 10% in assay [2] (setting [10]).
Regarding `COC(=O)CSC(c1ccccc1)c1ccccc1` [Example 1, Methyl [(diphenylmethyl)thio]acetate], the inhibition at 10 µM in assay [1] (setting [3]) was found to be 56%; in assay [2] (setting [5]), 20%. The inhibition at 100 µM in assay [1] (setting [4]) came out at 84%; in assay [2] (setting [6]), 42%.
In the case of `COC(=O)CSC(c1ccc(N(C)C)cc1)c1ccc(N(C)C)cc1` [Example 4, Methyl [[bis-(4-dimethylaminophenyl)methyl]thio]acetate], the “% Inhibition of PGHS-2 at 10 μM” value in assay [1] is reported as 92%. Moreover, the “% Inhibition of PGHS-2 at 100 μM” value in assay [1] is 99% and 92%. Besides, the results for the inhibition at 10 µM in assay [1] (setting [7]) and in assay [2] (setting [9]) were 86% and 42%, respectively. Also, the inhibition at 100 µM in assay [1] (setting [8]) amounted to 96%; in assay [2] (setting [10]) it was 68%. Also, in assay [2] (10 μM), the “% Inhibition of PGHS-1 at 10 μM” value is 31%. In addition, the “% Inhibition of PGHS-1 at 100 μM” value in assay [2] is 72%.
`COC(=O)CSC1c2ccccc2C=Cc2ccccc21` [Example 15, Methyl (5H-dibenzo[a,d]cyclohepten-5-yl-thio)acetate]: the inhibition at 10 µM in assay [1] (setting [7]) and in assay [2] (setting [9]) was below 10% throughout. Also, the inhibition at 100 µM is 31% in assay [1] (setting [8]) and below 10% in assay [2] (setting [10]).
